Reference: patent publication US20150366962A1 (priority 2014, published 2015)

How the values were obtained:
PR/8 virus / PR/8 HA = assay: Long-term memory response after rPR/8 HA: HAI titers, B cell and IFN-γ ELISpot; format: in vivo, BALB/c mice
Procedure: (A) BALB/c mice were i.m. immunized with rPR/8 HA (5 μg/animal) on day 0 with the indicated adjuvant or vehicle, and sera were collected every 3 weeks (red drops). (B) Levels of antigen-specific total IgG were measured by ELISA. (C) The serum HAI titer to PR/8 virus was assayed at 6 weeks after immunization, with a detection limit of 1:40 serum dilution; nd, not detectable. (D and E) Eighteen weeks after immunization, mice (n=5/group) were administered 10 mLD50 of PR/8 virus and monitored for morbidity, as measured by body weight loss (D), and mortality (E) induced by the viral challenge. […]
AddaVax was used at a 1:1 ratio with antigen in PBS. […] IFN-γ spot-forming cells were detected with the IFN-γ ELISpot ALP kit (3321-2A; Mabtech, Cincinnati, Ohio). Antigen specific B cells from splenocytes were quantified 5 days after reexposure to antigen (5 μg of rPR/8HAin PBS only administered i.m.) by plating them on ELISpot plates coated with rPR/8 protein (Strep tag purified) for 20 h, and detection of secreted antibody was performed with an anti-mouse IgG secondary antibody conjugated to horseradish peroxidase (HRP).
Anti-OVA antibodies of the IgG subclasses IgG1 and IgG2c were measured by ELISA. Each ELISA plate contained a titration of a previously quantitated serum to generate a standard curve. […] Total IgG, IgG1, and IgG2a were detected.

OVA = OVA immunization: splenocyte IFN-γ ELISA and ELISpot; format: in vivo, C57BL/6 mice
Procedure: AddaVax and vehicle were used as controls. The sera were collected on day 35, and the serum IgG1 (A) and IgG2c (B) levels were tested. (C) Splenocytes were incubated with OVA (100 μg/ml) for 3 days, and IFN-γ levels in the culture supernatants were determined by ELISA. Data were pooled from three experiments showing similar trends. (D and E) Myd88^−/−, Tri^flps/lps, or wild-type mice (n=8/group) were i.m. immunized with ovalbumin mixed with the indicated adjuvant or vehicle in a 50-μl volume on days 0 and 14. On day 35, splenocytes were incubated with OVA MHC class I peptides (OVA257-264) (D) or class II peptides (OVA323-339) (E) overnight, and IFN-γ-producing cells were detected by ELISpot assay. The data shown are pooled from 2 or 3 independent experiments showing similar trends. *, P 0.05 compared to no adjuvant (A to C) or the WT (D and E) by one-way ANOVA with Dunnett's post hoc testing.
Vehicle (10% DMSO in saline) and AddaVax (1:1 ratio with antigen in saline) were used as controls. Sera were collected on days 0, 7, 14, 21, 28, and 35. Mice were sacrificed on day 35, and the spleens were harvested. Approximately 2.5×10^6/ml spleen cells was dispersed into round-bottom microtiter plates in triplicate in a total volume of 200 μl complete RPMI 1640 and restimulated with either 100 μg/ml OVA or medium alone. The cultures were then incubated at 37° C., 5% CO2, and the supernatants were harvested after 72 h. The levels of gamma interferon (IFN-γ) in the culture supernatants were measured by ELISA (BD Bioscience, San Jose, Calif.) according to the manufacturer's instructions. In parallel, splenocytes were stimulated with 10 μg/ml OVA class I (OVA257-264) or class II (OVA323-339) peptide on anti-IFN-γ antibody-coated enzyme-linked immunospot (ELISpot) plates for 18 h. The results are reported as numbers of IFN-spot-forming cells (SFC) per million cells as described below.

Structure (SMILES): Cn1c2ccccc2c2nc(SCC(=O)NC3CCCCC3)n(-c3ccccc3)c(=O)c21 [Compound 1Z105]
- fold increase in HAI titer induced by the boost (PR/8 virus / PR/8 HA; 5 days after reexposure versus preboost): significant only in the 1Z105 group

Structure (SMILES): CCCCCCCCC=CCCCCCCCC(=O)OCC(COP(=O)(O)OCCNC(=O)c1ccc(Cn2c(=O)[nH]c3c(N)nc(OCCOC)nc32)cc1)OC(=O)CCCCCCCC=CCCCCCCCC (stereo not drawn) [Compound 1V270]
- dependence of increased antigen-specific T cell frequencies on MyD88 and TRIF (OVA; Myd88-/- and TrifLps2/Lps2 versus wild-type mice): partially dependent upon the MyD88 and TRIF pathways
- frequencies of IFN-γ-releasing T cells specific for OVA class I peptide (ELISpot) (OVA; OVA257-264, day 35 splenocytes): increased frequencies
- frequencies of IFN-γ-releasing T cells specific for OVA class II peptide (ELISpot) (OVA; OVA323-339, day 35 splenocytes): increased frequencies
- OVA-specific IFN-γ release by T cells restimulated ex vivo (OVA; splenocytes, OVA 100 μg/ml, 3 days, ELISA): promoted OVA-specific IFN-γ release
- antigen-specific IFN-γ-producing T cells (ELISpot) (PR/8 virus / PR/8 HA; splenocytes 6 months after immunization, PR/8 HA peptide pool overnight): induced antigen-specific IFN-γ T cells that were long lived
